# Results from ChEMBL document CHEMBL6087449, “Identification of an Isoxazole Derivative as an Antitubercular Compound for Targeting the FadD Enzymes of Mycobacterium tuberculosis” (J Med Chem, 2025).
# Active and inactive are the calls of the source. No cut-off for these calls is given here.
# B1: Long-chain-fatty-acid--AMP ligase FadD32 (Mycobacterium tuberculosis (strain ATCC 25618 / H37Rv)), O53580 (protein)
# chain: MFVTGESGMAYHNPFIVNGKIRFPANTNLVRHVEKWAKVRGDKLAYRFLDFSTERDGVARDILWSDFSARNRAVGARLQQVTQPGDRVAILCPQNLDYLISFFGALYSGRIAVPLFDPAEPGHVGRLHAVLDDCAPSTILTTTDSAEGVRKFIRARSAKERPRVIAVDAVPTEVAATWQQPEANEETVAYLQYTSGSTRIPSGVQITHLNLPTNVVQVLNALEGQEGDRGVSWLPFFHDMGLITVLLASVLGHSFTFMTPAAFVRRPGRWIRELARKPGETGGTFSAAPNFAFEHAAVRGVPRDDEPPLDLSNVKGILNGSEPVSPASMRKFFEAFAPYGLKQTAVKPSYGLAEATLFVSTTPMDEVPTVIHVDRDELNNQRFVEVAADAPNAVAQVSAGKVGVSEWAVIVDADTASELPDGQIGEIWLHGNNLGTGYWGKEEESAQTFKNILKSRISESRAEGAPDDALWVRTGDYGTYFKDHLYIAGRIKDLVIIDGRNHYPQDLECTAQESTKALRVGYAAAFSVPANQLPQTVFDDSHAGLKFDPEDTSEQLVIVGERAAGTHKLDHQPIVDDIRAAIAVGHGVTVRDVLLVSAGTIPRTSSGKIGRRACRAAYLDGSLRSGVGSPTVFATSD
# How the values were obtained:
# [1] = test system: Mycobacterium tuberculosis; assay: Antitubercular activity against Mycobacterium tuberculosis H37Rv assessed as inhibition of bacterial growth incubated for 5 days by Alamar Blue based assay; assay type: functional, organism-based; details: for IC50: 120 h
# [2] = test system: Mycolicibacterium smegmatis; assay: Antimycobacterial activity against Mycobacterium smegmatis; assay type: functional
# [3] = test system: Mycobacterium tuberculosis; assay: Antitubercular activity against Mycobacterium tuberculosis H37Rv; assay type: functional
# [4] = test system: Mycobacterium tuberculosis; assay: Antitubercular activity against Mycobacterium tuberculosis by alamar blue assay; assay type: functional
# [5] = compound: Oc1c(Br)cc(Br)cc1-c1cc(C(F)(F)F)no1; assay: Binding affinity to Mycobacterium tuberculosis H37Rv recombinant FadD32 assessed as Km in presence of lauric acid by Michaelis-Menten plot analysis
# [6] = compound: Oc1c(Br)cc(Br)cc1-c1cc(C(F)(F)F)no1; assay: Binding affinity to Mycobacterium tuberculosis H37Rv recombinant FadD32 assessed as Km in presence of ATP by Michaelis-Menten plot analysis
molecule,measurement,setting,value
Cc1ccc(O)c(-c2cc(C(F)(F)F)no2)c1,IC50,[1],10.5 µg/mL
Oc1ccc(-c2onc(C(F)(F)F)c2-c2ccc(Cl)cc2)c(O)c1,Activity,[1]; time 5.0 day,inactive
CCCCCCCCCCCC(=O)NS(=O)(=O)OC[C@H]1O[C@@H](n2cnc3c(N)ncnc32)[C@H](O)[C@@H]1O,MIC,[2],215 µM
same,MIC,[3],100 µM
same,MIC,[4],100 µM
Oc1ccccc1-c1cc(C(F)(F)F)no1,IC50,[1],11.7 µg/mL
B1,Km,[5],139 µM
same,Km,[6],248 µM
